Where “and” joins values, the source holds several entries; their conditions need not be identical. Equal values may be shown once. Read-outs that look alike come from different tables or passages of the source.
Tests used:
[1] = target: T1, M.tb PGDH (Native) (Mycobacterium tuberculosis, UniProt P9WNX3); assay type: biochemical
T1 sequence (P9WNX3 1-528): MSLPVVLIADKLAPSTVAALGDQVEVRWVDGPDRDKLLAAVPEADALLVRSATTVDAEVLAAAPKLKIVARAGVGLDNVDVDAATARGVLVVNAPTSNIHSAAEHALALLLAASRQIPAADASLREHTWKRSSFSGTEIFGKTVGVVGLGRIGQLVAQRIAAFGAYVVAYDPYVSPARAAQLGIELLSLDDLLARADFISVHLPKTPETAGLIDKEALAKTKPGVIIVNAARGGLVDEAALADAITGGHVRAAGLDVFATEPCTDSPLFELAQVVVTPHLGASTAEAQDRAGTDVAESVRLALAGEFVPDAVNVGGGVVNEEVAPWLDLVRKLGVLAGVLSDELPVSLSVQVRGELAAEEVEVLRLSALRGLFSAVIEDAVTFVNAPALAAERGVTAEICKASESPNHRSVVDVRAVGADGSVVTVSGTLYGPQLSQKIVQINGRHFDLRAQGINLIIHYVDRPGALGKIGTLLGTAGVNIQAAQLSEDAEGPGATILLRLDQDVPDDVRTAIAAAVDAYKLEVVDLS

[2] = target: T2, M.tb PGDH (Mycobacterium tuberculosis, UniProt P9WNX3); assay type: binding
T2 sequence (P9WNX3 1-528): T1 sequence (P9WNX3 1-528)

[3] = target: Human PGDH (Homo sapiens, UniProt O43175); assay: Serine effect on human PGDH; assay type: biochemical; conditions: unpublished result
[4] = system: E. coli PGDH; conditions: read-out: IC50 for L-serine; cited from earlier work
[5] = system: PGDH from B. subtilis; conditions: read-out: IC50 (serine); cited from earlier work
[6] = system: PGDH from C. glutamicum; conditions: read-out: IC50 (serine); cited from earlier work
[7] = system: rat liver PGDH; conditions: cited from earlier work
[8] = system: chicken liver PGDH; conditions: cited from earlier work
[9] = target: T1, M.tb PGDH (Native); conditions: read-out: Km (NADH), homotropic positive cooperativity; cited from earlier work
[10] = system: E. coli PGDH; conditions: read-out: Kd (NADH), without cooperativity; cited from earlier work

Chain of Human PGDH (O43175 whole entry): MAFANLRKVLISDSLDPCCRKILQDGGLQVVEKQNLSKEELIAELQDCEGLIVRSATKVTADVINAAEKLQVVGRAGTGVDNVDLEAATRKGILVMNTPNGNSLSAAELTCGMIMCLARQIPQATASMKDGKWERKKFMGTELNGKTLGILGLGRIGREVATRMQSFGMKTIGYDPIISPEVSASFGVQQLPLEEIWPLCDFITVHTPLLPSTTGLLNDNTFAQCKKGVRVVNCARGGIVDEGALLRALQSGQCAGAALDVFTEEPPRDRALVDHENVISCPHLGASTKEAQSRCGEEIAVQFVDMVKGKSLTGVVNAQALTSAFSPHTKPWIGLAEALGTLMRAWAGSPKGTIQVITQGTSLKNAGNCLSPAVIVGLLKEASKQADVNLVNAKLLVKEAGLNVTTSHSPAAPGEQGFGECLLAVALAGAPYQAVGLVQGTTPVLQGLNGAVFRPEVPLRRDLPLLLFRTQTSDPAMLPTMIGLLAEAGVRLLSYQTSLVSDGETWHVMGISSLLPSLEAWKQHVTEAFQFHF

O=C(O)C(=O)COP(=O)(O)O [HPAP, hydroxypyruvic acid phosphate]
Ki [1]: 950 ± 120 µM | kcat [1]: 2461 ± 281 s⁻¹ | Km ([1]; pH 7.5): 170 ± 50 µM | HPAP binding transient (enzyme fluorescence increase) [2]: rapid binding

N[C@@H](CO)C(=O)O [L-serine, reference compound]
Hill Coefficient [1]: […] | effect of serine on enzyme activity [3]: not inhibited | effect of serine on enzyme activity ([3]; listed as serine): not affected | IC50 [4]: […] | IC50 [5]: ~600 µM | IC50 [6]: ~10000 µM | effect of serine on enzyme activity [7]: no effect | effect of serine on enzyme activity [8]: no effect

NC(=O)C1=CN([C@@H]2O[C@H](COP(=O)(O)OP(=O)(O)OC[C@H]3O[C@@H](n4cnc5c(N)ncnc54)[C@H](O)[C@@H]3O)[C@@H](O)[C@H]2O)C=CC1 [NADH]
NADH concentration needed to produce a rate equal to the kcat [2]: at least 65 mM | on-rate for NADH binding [2]: occurs within the dead-time of the instrument | on-rates for NADH binding [2]: zero | off-rate of NADH binding ([2]; pH 7.5): 0.34 sec ^−1 and 0.21 sec ^−1 | Kd ([2]; read-out: Kd for NADH binding): 15 to 30 µM | Km [9]: ~50 µM | Kd [10]: < 0.5 µM

O=C(O)C(O)COP(=O)(O)O [phosphoglyceric acid, D-3-phosphoglyceric acid]
effect on the rate of NADH binding [2]: did not significantly enhance

— PMC2551328 (Biochemistry, 2008)
